“And” between values parts separate entries of the source, which are not always exact repeats. Equal entries are not always repeated.
What was measured:
Type in all cases: functional, Homo sapiens
TERT-RPE1 = test: (§1) Here: values are normalized to the negative (DMSO; defined as 0% autophagy induction) and positive (250nM Torin1; mTOR inhibitor; defined as maximal inducer of autophagy = 100%) control compounds and represented as % of autophagy induction. […] The impact of autophagy induction on cells is complex and depends on the affected target. As such, the magnitude of a phenotype may not be equally mirrored in the %-value of autophagy induction and vice versa. The dynamics of the induction may indicate the mode of activation: e.g. activation via phosphorylation or a signaling cascade may occur fast, while activation via transcription factors may take considerably longer. […] Of note, treatment concentrations may be sub-optimal for specific compounds, leading to false negative annotations.; conditions: Culturing Media DMEM/F12 (1:1), 1 % Penicillin/Streptomycin, 10% Fetal bovin serum Add-On: No, Screening Media Control DMEM/F12 (1:1), Screening Media Samples DMEM/F12 (1:1)
U2OS [1] = test: as §1; conditions: Culturing Media DMEM, 1 % Penicillin/Streptomycin, 10% Fetal bovin serum Add-On: No, Screening Media Control DMEM, Screening Media Samples DMEM
U2OS [2] = test: as §1; conditions: Culturing Media DMEM, 1 % Penicillin/Streptomycin, 10% Fetal bovin serum Add-On: No, Screening Media Control DMEM, Screening Media Samples DMEM; remark: listed apart in the source
[3] = Compound Concentration 0.5 uM, Timepoint 12 hours
[4] = Compound Concentration 0.5 uM, Timepoint 24 hours
[5] = Compound Concentration 0.5 uM, Timepoint 36 hours
[6] = Compound Concentration 0.5 uM, Timepoint 60 hours
[7] = Compound Concentration 2 uM, Timepoint 12 hours
[8] = Compound Concentration 2 uM, Timepoint 24 hours
[9] = Compound Concentration 2 uM, Timepoint 36 hours
[10] = Compound Concentration 2 uM, Timepoint 60 hours
[11] = Compound Concentration 10 uM, Timepoint 12 hours
[12] = Compound Concentration 10 uM, Timepoint 24 hours
[13] = Compound Concentration 10 uM, Timepoint 36 hours
[14] = Compound Concentration 10 uM, Timepoint 60 hours

| SMILES | autophagy induction (U2OS [1]; [3]) | autophagy induction (U2OS [1]; [4]) | autophagy induction (U2OS [1]; [5]) | autophagy induction (U2OS [1]; [6]) | autophagy induction (U2OS [1]; [7]) | autophagy induction (U2OS [1]; [8]) | autophagy induction (U2OS [1]; [9]) | autophagy induction (U2OS [1]; [10]) | autophagy induction (U2OS [1]; [11]) | autophagy induction (U2OS [1]; [12]) | autophagy induction (U2OS [1]; [13]) | autophagy induction (U2OS [1]; [14]) | autophagy induction (U2OS [2]; [3]) | autophagy induction (U2OS [2]; [4]) | autophagy induction (U2OS [2]; [5]) | autophagy induction (U2OS [2]; [6]) | autophagy induction (U2OS [2]; [7]) | autophagy induction (U2OS [2]; [8]) | autophagy induction (U2OS [2]; [9]) | autophagy induction (U2OS [2]; [10]) | also measured |
| --- | --- | --- | --- | --- | --- | --- | --- | --- | --- | --- | --- | --- | --- | --- | --- | --- | --- | --- | --- | --- | --- |
| CCCCC#Cc1nc(NC)c2ncn([C@@H]3O[C@H](CO)[C@@H](O)[C@H]3O)c2n1 | 7.971% | 2.814% | -58.1103% | -0.9818% | 3.199% | -2.198% | -60.437% | -1.323% | 0.2414% | -3.3271% | -60.2602% | -0.5763% | 1.872% | -1.476% | -3.077% | -6.595% | -4.8354% | -5.442% | -4.18% | -14.3215% | autophagy induction (TERT-RPE1; Compound Concentration 0.5 uM, Timepoint 12 hours, 12 h, 0.5 µM): -2.336% and -0.4442%; autophagy induction (TERT-RPE1; Compound Concentration 0.5 uM, Timepoint 24 hours, 24 h, 0.5 µM): -5.778% and -2.388%; autophagy induction (TERT-RPE1; Compound Concentration 0.5 uM, Timepoint 36 hours, 36 h, 0.5 µM): -6.915% and -5.4%; autophagy induction (TERT-RPE1; Compound Concentration 0.5 uM, Timepoint 60 hours, 60 h, 0.5 µM): -6.339% and -4.703%; autophagy induction (TERT-RPE1; Compound Concentration 2 uM, Timepoint 12 hours, 12 h, 2 µM): 2.252% and 1.572%; autophagy induction (TERT-RPE1; Compound Concentration 2 uM, Timepoint 24 hours, 24 h, 2 µM): 3.405% and -0.3092%; autophagy induction (TERT-RPE1; Compound Concentration 2 uM, Timepoint 36 hours, 36 h, 2 µM): 0.8288% and 0.6571%; autophagy induction (TERT-RPE1; Compound Concentration 2 uM, Timepoint 60 hours, 60 h, 2 µM): 0.7882% and 0.00413%; autophagy induction (TERT-RPE1; Compound Concentration 10 uM, Timepoint 12 hours, 12 h, 10 µM): 9.462% and -4.43%; autophagy induction (TERT-RPE1; Compound Concentration 10 uM, Timepoint 24 hours, 24 h, 10 µM): 9.8196% and -3.782%; autophagy induction (TERT-RPE1; Compound Concentration 10 uM, Timepoint 36 hours, 36 h, 10 µM): 10.3694% and -2.886%; autophagy induction (TERT-RPE1; Compound Concentration 10 uM, Timepoint 60 hours, 60 h, 10 µM): 10.0597% and -2.862%; autophagy induction (U2OS [2]; [11]): -0.5241%; autophagy induction (U2OS [2]; [12]): -0.2798%; autophagy induction (U2OS [2]; [13]): -5.149%; autophagy induction (U2OS [2]; [14]): -3.023% |
| Cc1csc(NC(=O)c2cc(F)cc(Oc3cncnc3)c2)n1 | -6.672% | -2.592% | -1.939% | -1.765% | -5.1627% | -3.72% | -2.553% | -1.843% | -2.289% | -0.7242% | -0.5379% | -1.609% | -16.3524% | -14.7733% | -11.9866% | -8.75% | -9.821% | -11.197% | -11.4826% | -11.3338% | autophagy induction (TERT-RPE1; [3]): -6.573%; autophagy induction (TERT-RPE1; [4]): -11.4508%; autophagy induction (TERT-RPE1; [5]): -15.1452%; autophagy induction (TERT-RPE1; [6]): -20.0235%; autophagy induction (TERT-RPE1; [7]): -3.733%; autophagy induction (TERT-RPE1; [8]): -9.437%; autophagy induction (TERT-RPE1; [9]): -10.535%; autophagy induction (TERT-RPE1; [10]): -13.1148%; autophagy induction (TERT-RPE1; [11]): -2.429%; autophagy induction (TERT-RPE1; [12]): -5.833%; autophagy induction (TERT-RPE1; [13]): -5.079%; autophagy induction (TERT-RPE1; [14]): -4.061%; autophagy induction (U2OS [2]; [11]): -1.626%; autophagy induction (U2OS [2]; [12]): -3.326%; autophagy induction (U2OS [2]; [13]): -2.706%; autophagy induction (U2OS [2]; [14]): -7.422% |

Reference: ChEMBL document CHEMBL5724696, “Autophagy assay results for EUbOPEN Chemogenomics Library” (2024)
